In the kinase profiling compilation of Christmann-Franck et al. (2016):

How the values were obtained:
Assay in all cases: KINOMEscan competition binding
Details in all cases: compound 10.0 µM
MARK1 (human) = MARK1 (human) (UniProt Q9P0L2)
CSNK2A2 (human) = CSNK2A2 (human) (UniProt P19784)
PRKAA1 (human) = PRKAA1 (human) (UniProt Q13131)
MAPKAPK2 (human) = MAPKAPK2 (human) (UniProt P49137)
MYLK4 (human) = MYLK4 (human) (UniProt Q86YV6)
ACVR1B (human) = ACVR1B (human) (UniProt P36896)
[1] = tested on: EGFR (human), P00533 [A750P; 747-749 del]
AXL (human) = AXL (human) (UniProt P30530)
[2] = tested on: BMX (human), P51813 [V600E]
CDK14 (human) = CDK14 (human) (UniProt O94921)
TYRO3 (human) = TYRO3 (human) (UniProt Q06418)
MYO3A (human) = MYO3A (human) (UniProt Q8NEV4)
RPS6KA4 KD1 (human) = RPS6KA4 KD1 (human) (UniProt O75676)
INSRR (human) = INSRR (human) (UniProt P14616)
PAK2 (human) = PAK2 (human) (UniProt Q13177)
BRSK1 (human) = BRSK1 (human) (UniProt Q8TDC3)
MLTK (human) = MLTK (human) (UniProt Q9NYL2)
TEK (human) = TEK (human) (UniProt Q02763)
IRAK3 (human) = IRAK3 (human) (UniProt Q9Y616)
MAPK14 (human) = MAPK14 (human) (UniProt Q16539)
CSNK1D (human) = CSNK1D (human) (UniProt P48730)
LCK (human) = LCK (human) (UniProt P06239)
YES1 (human) = YES1 (human) (UniProt P07947)
NEK2 (human) = NEK2 (human) (UniProt P51955)
PIK3CA (human) = PIK3CA (human) (UniProt P42336)
ACVR1 (human) = ACVR1 (human) (UniProt Q04771)
AURKA (human) = AURKA (human) (UniProt O14965)
MYLK (human) = MYLK (human) (UniProt Q15746)
AKT3 (human) = AKT3 (human) (UniProt Q9Y243)
CDK2 (human) = CDK2 (human) (UniProt P24941)
DAPK3 (human) = DAPK3 (human) (UniProt O43293)
[3] = target: JAK3 JH1 catalytic (human) (UniProt P52333)
SIK2 (human) = SIK2 (human) (UniProt Q9H0K1)
[4] = tested on: PIK3CA (human), P42336 [M1043I]
PIK3CG (human) = PIK3CG (human) (UniProt P48736)
WEE2 (human) = WEE2 (human) (UniProt P0C1S8)
CDKL2 (human) = CDKL2 (human) (UniProt Q92772)
ICK (human) = ICK (human) (UniProt Q9UPZ9)

Sequence of CSNK2A2 (human) (P19784 whole entry, looked up): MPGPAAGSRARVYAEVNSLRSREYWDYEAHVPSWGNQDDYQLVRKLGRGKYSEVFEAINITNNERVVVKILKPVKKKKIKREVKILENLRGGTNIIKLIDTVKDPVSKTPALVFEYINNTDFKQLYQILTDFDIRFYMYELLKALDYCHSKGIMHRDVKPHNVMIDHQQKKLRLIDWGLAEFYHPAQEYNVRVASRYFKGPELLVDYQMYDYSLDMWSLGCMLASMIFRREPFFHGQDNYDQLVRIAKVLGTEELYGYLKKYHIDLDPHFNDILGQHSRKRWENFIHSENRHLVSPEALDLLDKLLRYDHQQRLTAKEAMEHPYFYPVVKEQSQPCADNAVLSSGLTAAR
Sequence of JAK3 JH1 catalytic (human) (P52333 whole entry, looked up): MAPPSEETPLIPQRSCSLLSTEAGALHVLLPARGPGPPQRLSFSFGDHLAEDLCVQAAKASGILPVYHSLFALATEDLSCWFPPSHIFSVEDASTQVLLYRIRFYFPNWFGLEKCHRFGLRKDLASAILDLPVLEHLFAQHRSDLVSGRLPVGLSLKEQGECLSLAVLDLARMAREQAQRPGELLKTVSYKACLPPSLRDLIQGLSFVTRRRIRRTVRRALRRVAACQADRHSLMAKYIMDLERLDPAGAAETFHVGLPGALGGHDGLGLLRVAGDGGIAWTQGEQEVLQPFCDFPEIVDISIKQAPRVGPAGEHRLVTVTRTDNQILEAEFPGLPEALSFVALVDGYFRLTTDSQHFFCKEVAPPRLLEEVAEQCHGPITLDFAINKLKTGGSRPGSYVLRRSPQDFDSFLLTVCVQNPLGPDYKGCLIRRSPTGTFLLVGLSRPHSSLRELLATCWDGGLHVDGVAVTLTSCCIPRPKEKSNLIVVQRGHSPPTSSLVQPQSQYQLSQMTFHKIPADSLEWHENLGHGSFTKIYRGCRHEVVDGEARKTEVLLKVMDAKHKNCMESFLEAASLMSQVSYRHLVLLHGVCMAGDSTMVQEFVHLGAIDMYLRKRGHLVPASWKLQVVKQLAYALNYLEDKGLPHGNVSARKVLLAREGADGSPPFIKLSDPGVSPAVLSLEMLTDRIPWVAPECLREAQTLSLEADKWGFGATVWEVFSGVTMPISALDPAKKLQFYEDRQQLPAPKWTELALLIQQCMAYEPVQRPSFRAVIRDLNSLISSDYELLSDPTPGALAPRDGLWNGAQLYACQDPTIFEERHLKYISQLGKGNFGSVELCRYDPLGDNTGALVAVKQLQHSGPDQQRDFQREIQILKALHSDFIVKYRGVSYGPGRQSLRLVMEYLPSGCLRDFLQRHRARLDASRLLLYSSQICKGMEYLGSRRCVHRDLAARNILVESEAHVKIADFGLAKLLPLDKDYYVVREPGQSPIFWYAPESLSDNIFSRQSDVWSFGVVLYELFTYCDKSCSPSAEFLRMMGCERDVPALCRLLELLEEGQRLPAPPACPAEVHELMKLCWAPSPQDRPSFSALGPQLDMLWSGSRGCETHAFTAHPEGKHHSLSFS
Sequence of MYLK4 (human) (Q86YV6 whole entry, looked up): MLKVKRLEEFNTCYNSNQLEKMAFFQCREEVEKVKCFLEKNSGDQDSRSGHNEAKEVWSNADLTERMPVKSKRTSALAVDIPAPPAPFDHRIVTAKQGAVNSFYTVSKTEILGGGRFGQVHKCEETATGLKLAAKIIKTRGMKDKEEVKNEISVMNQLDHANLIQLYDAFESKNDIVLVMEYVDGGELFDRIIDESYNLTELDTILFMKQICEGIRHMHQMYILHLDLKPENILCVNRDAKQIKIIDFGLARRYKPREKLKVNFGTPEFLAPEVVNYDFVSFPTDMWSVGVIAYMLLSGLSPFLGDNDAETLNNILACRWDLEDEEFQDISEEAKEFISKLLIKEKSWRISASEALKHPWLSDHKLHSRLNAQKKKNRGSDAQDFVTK
Sequence of ACVR1B (human) (P36896 whole entry, looked up): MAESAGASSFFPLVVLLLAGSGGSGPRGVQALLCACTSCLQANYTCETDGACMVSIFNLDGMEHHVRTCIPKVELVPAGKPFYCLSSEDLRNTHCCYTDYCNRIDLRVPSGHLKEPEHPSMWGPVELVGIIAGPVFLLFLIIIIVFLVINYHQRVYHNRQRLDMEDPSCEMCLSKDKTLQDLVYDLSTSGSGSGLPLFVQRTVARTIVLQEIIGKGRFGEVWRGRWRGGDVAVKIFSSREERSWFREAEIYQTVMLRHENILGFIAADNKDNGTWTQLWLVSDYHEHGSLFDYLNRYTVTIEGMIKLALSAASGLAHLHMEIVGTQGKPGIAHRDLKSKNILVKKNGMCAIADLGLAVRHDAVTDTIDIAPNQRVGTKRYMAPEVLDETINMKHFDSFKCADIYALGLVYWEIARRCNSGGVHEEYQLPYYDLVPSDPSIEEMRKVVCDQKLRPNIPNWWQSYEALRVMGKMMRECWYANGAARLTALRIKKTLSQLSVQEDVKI
Sequence of LCK (human) (P06239 whole entry, looked up): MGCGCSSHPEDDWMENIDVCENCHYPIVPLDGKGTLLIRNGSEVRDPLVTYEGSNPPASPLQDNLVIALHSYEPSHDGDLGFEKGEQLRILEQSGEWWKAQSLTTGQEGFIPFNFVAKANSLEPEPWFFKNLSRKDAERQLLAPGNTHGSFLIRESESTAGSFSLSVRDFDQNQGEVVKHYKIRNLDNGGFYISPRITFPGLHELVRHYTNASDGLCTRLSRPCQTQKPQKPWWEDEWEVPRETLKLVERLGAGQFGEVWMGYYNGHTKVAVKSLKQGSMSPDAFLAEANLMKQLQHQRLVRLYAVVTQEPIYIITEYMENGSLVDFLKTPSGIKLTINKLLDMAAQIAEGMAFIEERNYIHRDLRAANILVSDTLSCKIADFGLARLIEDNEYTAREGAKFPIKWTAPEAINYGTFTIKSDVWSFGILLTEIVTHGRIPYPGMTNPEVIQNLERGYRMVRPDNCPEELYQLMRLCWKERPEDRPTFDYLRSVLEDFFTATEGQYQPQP
Sequence of MLTK (human) (Q9NYL2 whole entry, looked up): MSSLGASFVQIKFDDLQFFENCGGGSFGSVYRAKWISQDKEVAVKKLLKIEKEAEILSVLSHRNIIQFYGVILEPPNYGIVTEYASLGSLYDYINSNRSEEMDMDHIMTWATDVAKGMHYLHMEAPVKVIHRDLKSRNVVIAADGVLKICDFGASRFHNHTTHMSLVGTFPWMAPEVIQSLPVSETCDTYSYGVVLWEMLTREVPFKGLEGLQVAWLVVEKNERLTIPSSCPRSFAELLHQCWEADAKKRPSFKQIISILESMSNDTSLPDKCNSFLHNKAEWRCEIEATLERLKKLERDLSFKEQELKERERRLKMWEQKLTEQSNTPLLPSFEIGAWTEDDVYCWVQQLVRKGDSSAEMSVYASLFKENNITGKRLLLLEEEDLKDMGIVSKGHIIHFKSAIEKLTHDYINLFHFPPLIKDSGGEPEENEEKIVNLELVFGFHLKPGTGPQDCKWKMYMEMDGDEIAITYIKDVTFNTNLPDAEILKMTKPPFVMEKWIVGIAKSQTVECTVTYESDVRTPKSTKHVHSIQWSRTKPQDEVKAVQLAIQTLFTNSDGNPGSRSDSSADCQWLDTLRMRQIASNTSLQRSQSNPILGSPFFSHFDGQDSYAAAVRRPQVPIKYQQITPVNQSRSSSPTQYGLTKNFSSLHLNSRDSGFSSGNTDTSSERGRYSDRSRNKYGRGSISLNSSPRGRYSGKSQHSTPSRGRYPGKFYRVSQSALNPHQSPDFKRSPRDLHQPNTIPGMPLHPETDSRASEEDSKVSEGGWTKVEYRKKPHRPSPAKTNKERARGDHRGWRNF
Sequence of ACVR1 (human) (Q04771 whole entry, looked up): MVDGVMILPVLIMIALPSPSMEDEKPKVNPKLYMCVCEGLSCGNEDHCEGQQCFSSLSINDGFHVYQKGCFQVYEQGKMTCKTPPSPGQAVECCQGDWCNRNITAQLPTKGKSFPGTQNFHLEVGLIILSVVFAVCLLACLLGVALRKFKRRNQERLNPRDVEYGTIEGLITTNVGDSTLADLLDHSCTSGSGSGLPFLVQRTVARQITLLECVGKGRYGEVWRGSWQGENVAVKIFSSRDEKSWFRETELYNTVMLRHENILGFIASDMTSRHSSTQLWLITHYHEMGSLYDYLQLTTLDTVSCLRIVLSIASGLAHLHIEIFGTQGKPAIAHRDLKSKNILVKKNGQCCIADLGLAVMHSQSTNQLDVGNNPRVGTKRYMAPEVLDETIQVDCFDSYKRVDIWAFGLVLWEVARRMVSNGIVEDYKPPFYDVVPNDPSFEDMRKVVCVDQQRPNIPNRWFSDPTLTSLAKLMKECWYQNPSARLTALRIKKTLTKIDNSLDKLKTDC
Sequence of PRKAA1 (human) (Q13131 whole entry, looked up): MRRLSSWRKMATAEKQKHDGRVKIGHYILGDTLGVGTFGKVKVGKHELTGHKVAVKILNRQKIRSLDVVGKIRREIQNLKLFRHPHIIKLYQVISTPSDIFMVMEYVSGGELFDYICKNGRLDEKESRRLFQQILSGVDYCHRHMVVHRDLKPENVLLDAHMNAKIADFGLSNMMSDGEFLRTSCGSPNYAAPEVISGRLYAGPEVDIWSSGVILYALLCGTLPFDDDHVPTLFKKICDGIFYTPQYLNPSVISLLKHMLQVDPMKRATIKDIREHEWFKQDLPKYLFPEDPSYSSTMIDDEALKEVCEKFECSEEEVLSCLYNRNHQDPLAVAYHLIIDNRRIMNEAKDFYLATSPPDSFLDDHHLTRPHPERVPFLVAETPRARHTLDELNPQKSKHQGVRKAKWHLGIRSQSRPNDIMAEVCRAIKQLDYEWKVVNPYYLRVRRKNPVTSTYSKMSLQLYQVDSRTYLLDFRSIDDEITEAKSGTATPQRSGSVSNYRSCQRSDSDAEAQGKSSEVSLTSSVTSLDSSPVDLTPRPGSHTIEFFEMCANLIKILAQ

In the case of COc1ccc(N(C(=O)Oc2cc(C(=O)Nc3cccc(C(F)(F)F)c3)ccc2C)c2ccnc(Nc3ccc(N4CCN(C)CC4)cc3)n2)c(OC)c1, the kinase still bound, per cent of control (MARK1 (human)) is reported as 100%, the kinase still bound, per cent of control (CSNK2A2 (human)) is reported as 100% and the kinase still bound, per cent of control (PRKAA1 (human)) is reported as 1.6%. For the same compound, the kinase still bound, per cent of control (MAPKAPK2 (human)) was 100%, the kinase still bound, per cent of control (MYLK4 (human)) was 100% and the kinase still bound, per cent of control (ACVR1B (human)) was 100%. The kinase still bound, per cent of control [1] was 0.6%, the kinase still bound, per cent of control (AXL (human)) was 100% and the kinase still bound, per cent of control [2] was 9.7%. For the same compound, the kinase still bound, per cent of control (CDK14 (human)) was 100%, the kinase still bound, per cent of control (TYRO3 (human)) was 100% and the kinase still bound, per cent of control (MYO3A (human)) was 100%. The kinase still bound, per cent of control (RPS6KA4 KD1 (human)) was 100%, the kinase still bound, per cent of control (INSRR (human)) was 100% and the kinase still bound, per cent of control (PAK2 (human)) was 100%. It also gave a kinase still bound, per cent of control (BRSK1 (human)) of 100%, a kinase still bound, per cent of control (MLTK (human)) of 2.1% and a kinase still bound, per cent of control (TEK (human)) of 0.05%. It also gave a kinase still bound, per cent of control (IRAK3 (human)) of 100%, a kinase still bound, per cent of control (MAPK14 (human)) of 14% and a kinase still bound, per cent of control (CSNK1D (human)) of 100%. The kinase still bound, per cent of control (LCK (human)) was 0.4%, the kinase still bound, per cent of control (YES1 (human)) was 0.45% and the kinase still bound, per cent of control (NEK2 (human)) was 100%. It also gave a kinase still bound, per cent of control (PIK3CA (human)) of 100%, a kinase still bound, per cent of control (ACVR1 (human)) of 100% and a kinase still bound, per cent of control (AURKA (human)) of 100%. The kinase still bound, per cent of control (MYLK (human)) was 100%, the kinase still bound, per cent of control (AKT3 (human)) was 100% and the kinase still bound, per cent of control (CDK2 (human)) was 100%. For the same compound, the kinase still bound, per cent of control (DAPK3 (human)) was 100%, the kinase still bound, per cent of control [3] was 8.8% and the kinase still bound, per cent of control (SIK2 (human)) was 1.9%.
CCOc1cc(N2CCC(O)CC2)ccc1Nc1ncc2c(n1)N(C)c1ccccc1C(=O)N2C gave a kinase still bound, per cent of control (MARK1 (human)) of 100%, a kinase still bound, per cent of control (CSNK2A2 (human)) of 100% and a kinase still bound, per cent of control (PRKAA1 (human)) of 100%. The kinase still bound, per cent of control (MAPKAPK2 (human)) was 100%, the kinase still bound, per cent of control (MYLK4 (human)) was 100% and the kinase still bound, per cent of control (ACVR1B (human)) was 100%. The kinase still bound, per cent of control [1] was 100%, the kinase still bound, per cent of control (AXL (human)) was 100% and the kinase still bound, per cent of control [2] was 100%. For the same compound, the kinase still bound, per cent of control (CDK14 (human)) was 100%, the kinase still bound, per cent of control (TYRO3 (human)) was 100% and the kinase still bound, per cent of control (MYO3A (human)) was 100%. It also gave a kinase still bound, per cent of control [4] of 100%, a kinase still bound, per cent of control (RPS6KA4 KD1 (human)) of 100% and a kinase still bound, per cent of control (INSRR (human)) of 100%. It also gave a kinase still bound, per cent of control (PAK2 (human)) of 100%, a kinase still bound, per cent of control (BRSK1 (human)) of 100% and a kinase still bound, per cent of control (MLTK (human)) of 100%. The kinase still bound, per cent of control (TEK (human)) was 100%, the kinase still bound, per cent of control (IRAK3 (human)) was 100% and the kinase still bound, per cent of control (PIK3CG (human)) was 100%. For the same compound, the kinase still bound, per cent of control (MAPK14 (human)) was 100%, the kinase still bound, per cent of control (CSNK1D (human)) was 100% and the kinase still bound, per cent of control (LCK (human)) was 100%. It also gave a kinase still bound, per cent of control (YES1 (human)) of 100%, a kinase still bound, per cent of control (NEK2 (human)) of 100% and a kinase still bound, per cent of control (PIK3CA (human)) of 100%. For the same compound, the kinase still bound, per cent of control (ACVR1 (human)) was 100%, the kinase still bound, per cent of control (AURKA (human)) was 100% and the kinase still bound, per cent of control (MYLK (human)) was 100%. For the same compound, the kinase still bound, per cent of control (WEE2 (human)) was 100%, the kinase still bound, per cent of control (CDKL2 (human)) was 100% and the kinase still bound, per cent of control (AKT3 (human)) was 100%. The kinase still bound, per cent of control (CDK2 (human)) was 100%, the kinase still bound, per cent of control (DAPK3 (human)) was 100% and the kinase still bound, per cent of control [3] was 100%. For the same compound, the kinase still bound, per cent of control (SIK2 (human)) was 100% and the kinase still bound, per cent of control (ICK (human)) was 100%.
In the case of COc1cc(N2CCC(C(N)=O)CC2)ccc1Nc1nc(N)c(Cl)c(Nc2ccccc2S(=O)(=O)C(C)C)n1, the kinase still bound, per cent of control (MARK1 (human)) is reported as 100%, the kinase still bound, per cent of control (CSNK2A2 (human)) is reported as 100% and the kinase still bound, per cent of control (PRKAA1 (human)) is reported as 100%. It also gave a kinase still bound, per cent of control (MAPKAPK2 (human)) of 100%, a kinase still bound, per cent of control (MYLK4 (human)) of 100% and a kinase still bound, per cent of control (ACVR1B (human)) of 100%. It also gave a kinase still bound, per cent of control [1] of 0.15%, a kinase still bound, per cent of control (AXL (human)) of 8.6% and a kinase still bound, per cent of control [2] of 100%. The kinase still bound, per cent of control (CDK14 (human)) was 100%, the kinase still bound, per cent of control (TYRO3 (human)) was 100% and the kinase still bound, per cent of control (MYO3A (human)) was 15%. The kinase still bound, per cent of control (RPS6KA4 KD1 (human)) was 100%, the kinase still bound, per cent of control (INSRR (human)) was 1.2% and the kinase still bound, per cent of control (PAK2 (human)) was 100%. For the same compound, the kinase still bound, per cent of control (BRSK1 (human)) was 100%, the kinase still bound, per cent of control (MLTK (human)) was 100% and the kinase still bound, per cent of control (TEK (human)) was 100%. For the same compound, the kinase still bound, per cent of control (IRAK3 (human)) was 29%, the kinase still bound, per cent of control (PIK3CG (human)) was 100% and the kinase still bound, per cent of control (MAPK14 (human)) was 100%. For the same compound, the kinase still bound, per cent of control (CSNK1D (human)) was 100%, the kinase still bound, per cent of control (LCK (human)) was 14% and the kinase still bound, per cent of control (YES1 (human)) was 100%. It also gave a kinase still bound, per cent of control (NEK2 (human)) of 100%, a kinase still bound, per cent of control (PIK3CA (human)) of 100% and a kinase still bound, per cent of control (ACVR1 (human)) of 100%. For the same compound, the kinase still bound, per cent of control (AURKA (human)) was 100%, the kinase still bound, per cent of control (MYLK (human)) was 5% and the kinase still bound, per cent of control (WEE2 (human)) was 100%. For the same compound, the kinase still bound, per cent of control (CDKL2 (human)) was 100%, the kinase still bound, per cent of control (AKT3 (human)) was 100% and the kinase still bound, per cent of control (CDK2 (human)) was 100%. The kinase still bound, per cent of control (DAPK3 (human)) was 100%, the kinase still bound, per cent of control [3] was 100% and the kinase still bound, per cent of control (SIK2 (human)) was 100%.
For COc1cc(C)c(Sc2cnc(NC(=O)c3ccc(CNC(C)C(C)C)cc3)s2)cc1C(=O)N1CCN(C(C)=O)CC1 (stereo not drawn), the kinase still bound, per cent of control (MARK1 (human)) was 100%, the kinase still bound, per cent of control (CSNK2A2 (human)) was 100% and the kinase still bound, per cent of control (PRKAA1 (human)) was 100%. For the same compound, the kinase still bound, per cent of control (MAPKAPK2 (human)) was 100%, the kinase still bound, per cent of control (MYLK4 (human)) was 100% and the kinase still bound, per cent of control (ACVR1B (human)) was 100%. For the same compound, the kinase still bound, per cent of control [1] was 100%, the kinase still bound, per cent of control (AXL (human)) was 4% and the kinase still bound, per cent of control [2] was 100%. It also gave a kinase still bound, per cent of control (CDK14 (human)) of 100%, a kinase still bound, per cent of control (TYRO3 (human)) of 100% and a kinase still bound, per cent of control (MYO3A (human)) of 100%. For the same compound, the kinase still bound, per cent of control (RPS6KA4 KD1 (human)) was 100%, the kinase still bound, per cent of control (INSRR (human)) was 0.35% and the kinase still bound, per cent of control (PAK2 (human)) was 100%. The kinase still bound, per cent of control (BRSK1 (human)) was 100%, the kinase still bound, per cent of control (MLTK (human)) was 100% and the kinase still bound, per cent of control (TEK (human)) was 29%. For the same compound, the kinase still bound, per cent of control (IRAK3 (human)) was 100%, the kinase still bound, per cent of control (PIK3CG (human)) was 100% and the kinase still bound, per cent of control (MAPK14 (human)) was 100%. It also gave a kinase still bound, per cent of control (CSNK1D (human)) of 100%, a kinase still bound, per cent of control (LCK (human)) of 6.2% and a kinase still bound, per cent of control (YES1 (human)) of 12%. For the same compound, the kinase still bound, per cent of control (NEK2 (human)) was 18%, the kinase still bound, per cent of control (PIK3CA (human)) was 100% and the kinase still bound, per cent of control (ACVR1 (human)) was 100%. It also gave a kinase still bound, per cent of control (AURKA (human)) of 100%, a kinase still bound, per cent of control (MYLK (human)) of 100% and a kinase still bound, per cent of control (WEE2 (human)) of 3.6%. It also gave a kinase still bound, per cent of control (CDKL2 (human)) of 100%, a kinase still bound, per cent of control (AKT3 (human)) of 100% and a kinase still bound, per cent of control (CDK2 (human)) of 100%. The kinase still bound, per cent of control (DAPK3 (human)) was 100%, the kinase still bound, per cent of control [3] was 100% and the kinase still bound, per cent of control (SIK2 (human)) was 100%.
